This is an account of results in PubChem BioAssay (NCI).

Test systems include SW-620 colon; CCRF-CEM leukemia; RPMI-8226 leukemia; UACC-257 melanoma; NCI-H522 lung; SNB-19 CNS; HCT-116 colon; COLO 205 colon; NCI-H226 lung; MOLT-4 leukemia; OVCAR-5 ovarian; A498 renal.
Assay in all cases: NCI anticancer screen, dose series, 48 h

Structures are written as SMILES.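 Protocol summary: plate cells (96-well), add compound at 5 concentrations, incubate 48 h, interpolate endpoints linearly. The concentration for full growth arrest is given as TGI.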

For the compound `O=C1c2ccccc2C(=O)C2C3c4ccccc4C(c4ccccc43)C12` (configuration not stated), the TGI in the test with SW-620 colon is above 100 µM; in the test with CCRF-CEM leukemia it was 26 µM; in the test on RPMI-8226 leukemia, 25.7 µM; in the test with UACC-257 melanoma, above 100 µM; in the test on NCI-H522 lung it was above 100 µM; in the test on SNB-19 CNS it was above 100 µM. The TGI in the test on HCT-116 colon was above 100 µM; in the test with COLO 205 colon, above 100 µM; in the test on NCI-H226 lung, above 100 µM; in the test on MOLT-4 leukemia, 27.9 µM.

On to `CN(C)CCCNC(=O)c1cc(NC(=O)c2cc(NC(=O)[C@H]3C[C@@H]3C(=O)Nc3cc(C(=O)Nc4cc(C(=O)NCCCN(C)C)n(C)c4)n(C)c3)cn2C)cn1C`, for which the TGI in the test with SW-620 colon, with CCRF-CEM leukemia, in the test on RPMI-8226 leukemia, with UACC-257 melanoma, in the test on NCI-H522 lung and in the test with SNB-19 CNS was above 100 µM each time. Further, the TGI in the test on HCT-116 colon, in the test with COLO 205 colon, in the test on OVCAR-5 ovarian, in the test with NCI-H226 lung and in the test with MOLT-4 leukemia was above 100 µM each time.

Take `CC(=O)Nc1ccc(S(=O)(=O)[N-]C2C(=O)c3ccccc3C(=O)C2[n+]2ccccc2)cc1` (configuration not stated): the TGI is 32.9 µM with SW-620 colon; 40.5 µM in the test on CCRF-CEM leukemia; above 100 µM with RPMI-8226 leukemia; 29.5 µM in the test on UACC-257 melanoma; 92.7 µM in the test on NCI-H522 lung; 27.3 µM in the test on SNB-19 CNS. Moreover, the TGI in the test with HCT-116 colon is above 100 µM; in the test with COLO 205 colon, above 100 µM; with OVCAR-5 ovarian it was 32.3 µM; in the test on NCI-H226 lung it was above 100 µM; in the test with MOLT-4 leukemia it was 47.2 µM.

As to `O=C1SC(c2ccccc2)(c2ccccc2)c2ccccc21`, the TGI in the test with SW-620 colon, with CCRF-CEM leukemia, in the test on RPMI-8226 leukemia, in the test with UACC-257 melanoma, in the test with NCI-H522 lung and in the test on SNB-19 CNS was above 100 µM each time. The TGI in the test on HCT-116 colon, in the test with COLO 205 colon, in the test on NCI-H226 lung and with MOLT-4 leukemia was above 100 µM throughout.

In the case of `O=C(N/N=C/C=C/c1ccc([N+](=O)[O-])o1)c1ccc(Br)s1`, the TGI in the test on A498 renal was above 100 µM; in the test on SW-620 colon, 71.6 µM; with CCRF-CEM leukemia it was above 100 µM; in the test with RPMI-8226 leukemia, 23.4 µM; in the test on SNB-19 CNS, 78.9 µM; in the test with HCT-116 colon, 13.3 µM. The TGI in the test on COLO 205 colon is 33.3 µM; with OVCAR-5 ovarian it was 59.7 µM; in the test on NCI-H226 lung, 47.3 µM; in the test on MOLT-4 leukemia, above 100 µM.

Turning to `Clc1ccc2c(c1)CC1C[N+]3=C(CCCC3)C1=C2` (configuration not stated), the TGI in the test on A498 renal, in the test with SW-620 colon, in the test with CCRF-CEM leukemia, with UACC-257 melanoma, in the test with NCI-H522 lung and in the test on SNB-19 CNS was above 100 µM in each case. Moreover, the TGI in the test with HCT-116 colon, with COLO 205 colon, with OVCAR-5 ovarian, with NCI-H226 lung and with MOLT-4 leukemia was above 100 µM each time.

For `CC(=O)O[C@H]1[C@@H](OC2CCCC2(c2ccccc2)c2ccccc2)O[N+]([O-])=C[C@@]12COCc1cc3c(cc12)OCO3` (some centres not stated), the TGI in the test with A498 renal is 7.67 µM; in the test on SW-620 colon, above 100 µM; in the test on CCRF-CEM leukemia, above 24.5 µM; in the test on UACC-257 melanoma it was above 100 µM; in the test on NCI-H522 lung it was 5.35 µM; in the test with SNB-19 CNS it was 49 µM. In addition, the TGI in the test on HCT-116 colon is above 47.5 µM; in the test on COLO 205 colon it was above 58.2 µM; in the test on OVCAR-5 ovarian it was above 51.5 µM; with NCI-H226 lung, 15.8 µM; with MOLT-4 leukemia, above 22.9 µM.

`O=c1[nH]c(=O)n(C2OC(CO)C(O)C2O)cc1OCCc1ccccc1` (configuration not stated): the TGI in the test with A498 renal, with SW-620 colon, with CCRF-CEM leukemia, in the test with UACC-257 melanoma, with NCI-H522 lung and in the test with SNB-19 CNS was above 100 µM each time. Further, the TGI with HCT-116 colon, in the test with COLO 205 colon, with OVCAR-5 ovarian, with NCI-H226 lung and with MOLT-4 leukemia was above 100 µM in each case.

Take `CN(C)CS/C(N)=N\C(O)C(Cl)(Cl)Cl` (configuration not stated): the TGI in the test on A498 renal, in the test with SW-620 colon, in the test with CCRF-CEM leukemia, with UACC-257 melanoma, with NCI-H522 lung and in the test on SNB-19 CNS was above 100 µM in each case. The TGI in the test with HCT-116 colon, in the test on OVCAR-5 ovarian, in the test on NCI-H226 lung and in the test on MOLT-4 leukemia was above 100 µM each time.

For the compound `Cc1ccc(S(=O)(=O)N/N=C/c2oc(-c3ccccc3Cl)c(-c3ccccc3Cl)c2[N+](=O)[O-])cc1`, the TGI in the test on A498 renal was 61.8 µM; with SW-620 colon it was above 100 µM; with CCRF-CEM leukemia, above 100 µM; in the test with RPMI-8226 leukemia, 30.3 µM; in the test with UACC-257 melanoma, above 100 µM; with NCI-H522 lung, 26 µM. Moreover, the TGI is 64 µM in the test with SNB-19 CNS; 46.6 µM in the test on HCT-116 colon; above 100 µM in the test with COLO 205 colon; 34.2 µM in the test on OVCAR-5 ovarian; above 100 µM in the test on MOLT-4 leukemia.

Consider `CCn1c(-c2ccccc2)nc2c1C(=O)c1ccccc1C2=O`, for which the TGI in the test with SW-620 colon is above 100 µM; in the test with CCRF-CEM leukemia, above 100 µM; in the test on RPMI-8226 leukemia, above 100 µM; in the test with NCI-H522 lung it was 43 µM; with SNB-19 CNS it was above 100 µM; with HCT-116 colon it was 63.6 µM. For the same compound, the TGI turned out to be 91.1 µM with COLO 205 colon, 82.8 µM in the test with OVCAR-5 ovarian, 71.6 µM with NCI-H226 lung and 91.1 µM in the test with MOLT-4 leukemia.

`CC(C)/C(Cl)=N\OC(=O)Nc1ccc(F)c([N+](=O)[O-])c1`: the TGI in the test on A498 renal was found to be 41.7 µM; in the test on SW-620 colon, 7.56 µM; with RPMI-8226 leukemia, 4.87 µM; with UACC-257 melanoma, 33.5 µM; in the test on NCI-H522 lung, 2.45 µM; with SNB-19 CNS, 30.6 µM. In addition, the TGI in the test on HCT-116 colon was determined as 11.7 µM; in the test on COLO 205 colon it was 4.36 µM; in the test with OVCAR-5 ovarian it was 42.8 µM; with NCI-H226 lung it was 50.1 µM; in the test on MOLT-4 leukemia, 4.94 µM.

For `COc1cc(C=Nc2ccc(S(N)(=O)=O)cc2)cc(OC)c1`, the TGI in the test with A498 renal, in the test on CCRF-CEM leukemia, in the test with RPMI-8226 leukemia, in the test on UACC-257 melanoma, in the test with SNB-19 CNS and in the test with HCT-116 colon was above 50 µM in each case. Further, the TGI with COLO 205 colon, with OVCAR-5 ovarian, in the test on NCI-H226 lung and in the test on MOLT-4 leukemia was above 50 µM each time.
